The values below come from patent US20240058308A1, “TREATMENT AND PREVENTION OF DRY MACULAR DEGENERATION” (The Regents of the University of Michigan, priority 2021, published 2024).

For series [1], the system named is primary human fetal RPE (hfRPE) culture. The series is described as follows: Autophagy induction by LC3 lipidation (LC3-II/LC3-I ratio) on Western blot. It counts as cell-based. As to conditions: 24 hours exposure, vs vehicle (DMSO). The procedure:
(§1) Cell cultures were exposed to each putative autophagy inducer at a concentration indicated in Table 1 for 24 hours, lysed with 36 μL of SDS sample buffer with β-mercaptoethanol, with 15 μg of lysate loaded on a 4-15% gradient gel followed by transfer to a PVDF membrane. Blots were incubated with 1:1000 of LC3A/B antibody (Cell Signaling Technology; #4108s, RRID:AB_2137703) overnight. Quantifying LC3-II/LC3-I ratio is a well-accepted method for det 306 ermining autophagy induction [Ref. 44; incorporated by reference in its entirety], and this ratio was quantified in a non-saturated, linear range using the Azure c500 Imaging System (Azure Biosystems, Dublin, CA, USA) and a combination of AzureSpot and ImageJ software. The data in FIG. 2A are not normalized, whereas the data in FIGS. 2b and 1c are normalized to the average combined value of the vehicle and drug groups within each experimental repeat. The extreme pigmentation of human fetal cultures, combined with the destruction of the LC3 epitope with melanin bleaching protocols, makes detection of LC3 by microscopy in hfRPE difficult. A range of LC3 staining and puncta quantification protocols specifically adapted to pigmented hfRPE culture were employed [Ref. 43; incorporated by reference in its entirety]. At least five fields of view were randomly chosen and analyzed per experimental replicate for LC3 immunocytochemistry.
To test for autophagy induction, lipidation of the core autophagy protein LC3 was measured by mobility shift on Western blots 24 hours after each compound was added to hfRPE cultures [Ref. 44; incorporated by reference in its entirety]. […] Of the more than 30 putative autophagy inducers tested, only five produced an increased ratio of LC3-II/LC3-I, consistent with increased autophagy (FIG. 2a).
Autophagy induction was measured by LC3-II/LC3-I Ratios on Western Blot (standard method for autophagy induction) (FIG. 18A-C). Drugs were applied to primary human RPE culture for 24 hours.

Series [2] concerns primary hfRPE culture. As to the kind of experiment: Outer segment (OS) phagocytosis efficiency (rhodopsin disappearance). Particulars: bovine outer segments, pulse-only method.
Procedure: (§4) Phagocytosis assays using bovine outer segments was performed using the “pulse-only” method [Ref 43; incorporated by reference in its entirety]. Values at the zero-hour timepoint were used for normalization.
Series [3] deals with primary hfRPE culture. The series is described as follows: Trans-epithelial electrical resistance (TEER), tight-junction integrity. It counts as cell-based. The procedure: (§2) TEER and cell death were measured [Ref 51; incorporated by reference in its entirety]. For cell death assays, maximum possible LDH release per Transwell was measured immediately after 2 μL of the final experimental supernate was taken. The Transwell and supernate was then treated with 0.2% Triton X-100 for 15 minutes at 37° C. followed by collection of an additional 2 μL of supernate. Each experimental LDH release value was first normalized to total LDH release from the vehicle condition. Additionally, all TEER and LDH release measurements were normalized to the vehicle group at the zero-hour timepoint.
(§3) To evaluate the safety of D4476 and FLBZ, trans-epithelial electrical resistance (TEER) was measured, a measure of tight-junction integrity, in RPE cultures after prolonged exposure to each compound. As well-formed tight-junctions require myriad cell processes to be optimally coordinated, assessing TEER provides an easily measurable, ongoing, and noninvasive marker for general RPE cell health [Ref. 45; incorporated by reference in its entirety]. […] Lactate dehydrogenase (LDH) release, a combined marker of necrotic and late-stage apoptotic cell death [Refs. 47,48; incorporated by reference in their entireties], was reduced compared to vehicle for all four verified RPE autophagy inducers (FIG. 3b). Exposure of RPE cultures to the oxidant tert-butyl hydroperoxide confirmed the ability of the assay to detect cell death (FIG. 10).
Transepithelial Electrical Resistance (TEER) was tested (FIGS. 16 and 17). TEER is a sensitive measure of toxicity (lower the TEER, the more toxic the drug is). Drugs were added daily and measurements made daily for at least 4-8 days.

Series [4] relates to primary human fetal RPE (hfRPE) culture. As to the kind of experiment: Autophagy flux assay with NH4Cl lysosomal alkalinization. Type of series: cell-based. Particulars: inducer 22.5 hours, then 25 mM NH4Cl for final 1.5 hours.
Procedure: Cultures were exposed to compounds or vehicle (DMSO) for 24 hours. […] (C) Autophagy flux assays. After application of inducers or vehicle (DMSO) for 22.5 hours, 25 mM of NH4Cl, a lysosomal alkalizing agent, or H2O were added for a final 1.5 hours to inhibit autophagy flux.
Increases in both LC3 lipidation and autophagosome formation could result from downstream blockade of autophagy at the lysosome.
Series [5] shares this test system. The series is described as follows: Autophagy induction by LC3 puncta formation (immunocytochemistry). It counts as cell-based. As to conditions: 24 hours exposure. As for the experimental part: as §1
Autophagy induction was confirmed by assaying the formation of LC3-positive puncta (autophagosomes) by immunocytochemistry [Ref. 44; incorporated by reference in its entirety]. Puncta formation was quantified in automated/unbiased fashion using a customized macro in the Fiji/ImageJ platform [Ref. 43; incorporated by reference in its entirety].
Autophagy induction was measured by LC3 puncta on immunocytochemistry (standard method for autophagy induction) (FIG. 19). Drugs applied to primary human RPE culture for 24 hours.

Series [6] concerns primary hfRPE culture.
Procedure: as §4
A further series deals with RPE from mouse eyecups. As to the kind of experiment: Ex vivo mouse eyecup autophagy induction (LC3II/LC3I ratio). Particulars: mouse RPE/choroid eyecup, 24 hours; Torin 1-5 uM, FLBZ 12-60 uM. The procedure: FIG. 14. Effect of autophagy positive control Torin on RPE from mouse eyecups (DMSO as control). […] Mouse eyes were enucleated, the anterior segment vitreous, and retina were removed, leaving an eyecup with RPE/choroid exposed. […] RPE/Choroid eyecup was treated with 1 uM Torin1 in our previously established RPE cell culture media for 24 hours. n=4.
FIG. 15. Effect of Flubendazole on RPE from Mouse Eyecups (DMSO as control). Conditions with and without ammonium chloride (NH4Cl) help establish high autophagy flux rates. If true autophagy flux is happening, the LC3II/LC3I ratio should increase further upon addition of NH4Cl, as is the case here. DMSO− and FLBZ−, n=6, FLBZ+ and DMSO+ n=5. Flubendazole tested at 60 uM, lysates collected after 24 hours. Induction did occur in eyecups.
Given the inconsistent results with detecting autophagy induction using intravitreal injection of the positive control, Torin, experiments were conducted to determine whether the lack of responsiveness to intravitreal injections was a drug access issue or whether it was a species or animal vs. culture difference. Additional experiments utilized freshly isolated mouse eyecups with the retina removed to determine whether Torin (and FLBZ) induce autophagy in this context. […] The use of ammonium chloride in these experiments blocks lysosomal degradation.

Series [7] deals with primary hfRPE culture. As to the kind of experiment: Undigestible autofluorescent material (UAM) accumulation, elimination and granule size after oxOS feedings. It counts as cell-based, human. Particulars: fed daily with oxOS over a month; FLBZ 12 μM, Torin 1 μM; vs vehicle.
The subject of the next series is RPE of mouse eye. The series is described as follows: Intravitreal injection in mouse eyes, autophagy by LC3II/LC3I ratio of lysates. It counts as in vivo. As to conditions: four concentrations up to 500 uM, multiple timepoints, DMSO in other eye. The procedure:
Experiments were conducted during development of embodiments herein to assay for autophagy in the mouse eye. Experiments were conducted to measure autophagy by giving an intraperitoneal injection of leupeptin, followed by assaying for LC3 puncta in an RPE flatmount of a GFP-LC3 mouse. Background from GFP-LC3 debris deposited on the RPE when the retina was peeled off for the flat mount prevented signal detection. A biochemical assay was then employed for autophagy induction, measuring an increase in the lipidation of the autophagy core protein LC3 (lipidated LC3=LC3-II, unlipidated LC3=LC3-I, so higher LC3-II/LC3-I ratio indicates autophagy induction). Sufficient signal as obtained. […] Harvesting techniques were also optimized for collecting RPE from mouse eyes.
Experiments were conducted during development of embodiments herein to establish a positive control for autophagy induction. […] Autophagy induction was measured at 4 different concentrations of Torin (500 nm, 5 um, 50 um, 500 um) and at 5 different timepoints after injection (1 day, 3 days, 7 days, 14 days, 28 days). […] Nevertheless, the ability of intravitreal injections of FLBZ to induce autophagy in the RPE was assessed. In preparation for injecting FLBZ intravitreally into mice, solubility assays were performed and the maximum amount of FLBZ that can be injected without it crashing out of solution in the vitreous was determined. […]

The nature of series [8]: Solubility assays of DMSO stock mixed with PBS (simulating the vitreous). Type of series: physicochemical. As to conditions: Torin 1 mM stock mixed 1:1 with PBS; flubendazole 3 mM stock. As for the experimental part: Experiments were conducted during development of embodiments herein to establish a positive control for autophagy induction. The direct mTOR inhibitor Torin1 was selected over rapamycin/sirolimus as the positive control, based on the capacity of Torin1 to induce autophagy in primary culture more strongly and more consistently than rapamycin. The experimental set-up involved injecting one eye with Torin and the other eye with the DMSO vehicle. Autophagy induction was measured at 4 different concentrations of Torin (500 nm, 5 um, 50 um, 500 um) and at 5 different timepoints after injection (1 day, 3 days, 7 days, 14 days, 28 days). […] Nevertheless, the ability of intravitreal injections of FLBZ to induce autophagy in the RPE was assessed. In preparation for injecting FLBZ intravitreally into mice, solubility assays were performed and the maximum amount of FLBZ that can be injected without it crashing out of solution in the vitreous was determined. […] This helped inform maximal concentrations of flubendazole that could be injected intravitreally. Four different concentrations were injected, up to the maximum solubility of FLBZ, and autophagy induction was assayed over a timeframe ranging from 1 week to 4 weeks after injection.

The test system of series [9] is primary hfRPE culture. The series is described as follows: Cytotoxicity by LDH release. As to conditions: 24 hours exposure. Type of series: cell-based, human. The procedure: as §2
as §3, with “Exposure of RPE cultures to the oxidant tert-butyl hydroperoxide confirmed the ability of the assay to detect cell death (FIG. 10).” left out
Background: LDH leaks from cells whose membrane has failed.

Setting [10] is: prolonged exposure, drug or vehicle (DMSO) replaced daily.

Read-outs that look alike come from different tables or passages of the source.

On to `CCCCc1oc2ccccc2c1C(=O)c1cc(I)c(OCCN(CC)CC)c(I)c1` [Amiodarone], for which the “LC3-II/LC3-I ratio (autophagy induction)” value in series [1] is on record as “Induction of autophagy”.
`NC(=O)c1ccc(-c2nc(-c3ccc4c(c3)OCCO4)c(-c3ccccn3)[nH]2)cc1` [D4476]: in the series with primary hfRPE culture [2], the “OS phagocytosis efficiency / OS degradative capacity” value is reported as “no effect on OS degradative capacity”. The “TEER (tight-junction integrity)” value in the series with primary hfRPE culture [3] (setting [10]) is recorded as “more modest impact”. Besides, the “Autophagy flux: LC3-II/LC3-I ratio after NH4Cl” value in [4] is “induces autophagy flux”. The “LC3 puncta formation (autophagy induction)” value (from here on “LC3 puncta formation”) in series [5] is “induced autophagy”. Besides, the “LC3-II/LC3-I ratio (autophagy induction)” value in [1] is reported as “Induction of autophagy”.
With `O=C1NC(=O)/C(=C/c2ccc3nccc(-c4ccncc4)c3c2)S1` [GSK, GSK 1059615], the “OS phagocytosis efficiency / OS degradative capacity” value in the series on primary hfRPE culture [6] is “reduces phagocytosis efficiency”. Further, the “TEER (tight-junction integrity)” value with primary hfRPE culture [3] (setting [10]) was “dramatically reduced TEER”. Besides, in series [4], the “Autophagy flux: LC3-II/LC3-I ratio after NH4Cl” value is “induces autophagy flux”. Moreover, the “LC3 puncta formation” value in series [5] is given as “induced autophagy”. For the same compound, the “LC3-II/LC3-I ratio (autophagy induction)” value in series [1] is “upregulate autophagy”.
For `CC(C)(Sc1ccc(CCN(CCCCC2CCCCC2)C(=O)NC2CCCCC2)cc1)C(=O)O` [GW7647], the “LC3-II/LC3-I ratio (autophagy induction)” value in [1] was “Induction of autophagy”.
For `O=C(NCC1(N2CCN(c3ccccc3)CC2)CCOCC1)c1cccnc1Sc1ccccc1` [JNJ, JNJ-47965567], the “LC3-II/LC3-I ratio (autophagy induction)” value in [1] is “Induction of autophagy”.
Take `CCC(=O)N1CCN(c2ccc(-n3c(=O)ccc4cnc5ccc(-c6cnc7ccccc7c6)cc5c43)cc2C(F)(F)F)CC1` [Torin, Torin1]: in the series with primary hfRPE culture [6], the “OS phagocytosis efficiency / OS degradative capacity” value is on record as “reduces phagocytosis efficiency”. Also, in the series with primary hfRPE culture [3], the “TEER (tight-junction integrity)” value is recorded as “dramatically reduced TEER”. The “Autophagy induction in eyecups (LC3II/LC3I ratio)” value with RPE from mouse eyecups is on record as “induces autophagy well”. For the same compound, the “Autophagy flux: LC3-II/LC3-I ratio after NH4Cl” value in series [4] was “induces autophagy flux”. Besides, the “LC3 puncta formation” value in series [5] is “induced autophagy”. Besides, the “UAM accumulation, drug fed concurrently with oxOS” value in the series with primary hfRPE culture [7] is on record as “more UAM accumulation”. Further, in the series on RPE of mouse eye, the “Autophagy induction in RPE after intravitreal injection (LC3II/LC3I ratio)” value is “No concentration or time after injection provided convincing evidence for replicable autophagy induction”. For the same compound, the “LC3-II/LC3-I ratio (autophagy induction)” value in series [1] is given as “upregulate autophagy”. In addition, the “Precipitation of DMSO stock solution when mixed with PBS” value in series [8] is reported as “did not crash out”.
As to `COc1cc2c(Oc3ccc4[nH]c(C)cc4c3F)ccnc2cc1OCC1(N)CC1` [anlotinib], the “TEER (toxicity), Example 3” value with primary hfRPE culture [3] is “No toxicity is observed”. In series [5], the “LC3 puncta formation” value is “confirming autophagy induction”. The “LC3-II/LC3-I ratio (autophagy induction)” value in [1] is listed as “evidence for autophagy induction”.
Turning to `N#CC1(c2ccc(NC(=O)c3cccnc3NCc3ccncc3)cc2)CCCC1` [apatinib], the “TEER (toxicity), Example 3” value in the series on primary hfRPE culture [3] is on record as “No toxicity is observed”. In addition, the “LC3 puncta formation” value in [5] is on record as “confirming autophagy induction”. Further, in [1], the “LC3-II/LC3-I ratio (autophagy induction)” value was “evidence for autophagy induction”.
As to `CCN(CC)CCNC(=O)c1c(C)[nH]c(/C=C2\C(=O)Nc3ccc(F)cc32)c1C` [sunitinib], in the series on primary hfRPE culture [3], the “TEER (toxicity), Example 3” value was “No toxicity is observed”.
Consider `CC(C)(C)OO` [tBHP, tert-butyl hydroperoxide], for which the “LDH release after oxidant exposure (assay validation)” value in the series on primary hfRPE culture [9] was “marked increase in LDH release”.
